Measured values taken from PubChem BioAssay (NCI).
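These data come from cells grown in 96-well plates and exposed to compound for 48 hours at five concentrations. TGI is the concentration that stops growth completely.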

Tests used:
Experiment in all cases: DTP human tumour cell line panel, 48 h
[1] = test system: 786-0 renal
[2] = test system: A498 renal
[3] = test system: A549 NSCLC
[4] = test system: ACHN renal
[5] = test system: CAKI-1 renal
[6] = test system: CCRF-CEM leukemia
[7] = test system: COLO 205 colon
[8] = test system: DLD-1 colon
[9] = test system: DMS 114 small cell lung
[10] = test system: DMS 273 small cell lung
[11] = test system: EKVX NSCLC
[12] = test system: HCC-2998 colon
[13] = test system: HCT-116 colon
[14] = test system: HCT-15 colon
[15] = test system: HL-60(TB) leukemia
[16] = test system: HOP-18 NSCLC
[17] = test system: HOP-62 NSCLC
[18] = test system: HOP-92 NSCLC
[19] = test system: HT29 colon
[20] = test system: IGROV1 ovarian
[21] = test system: K-562 leukemia
[22] = test system: KM12 colon
[23] = test system: LOX IMVI melanoma
[24] = test system: LXFL 529 NSCLC
[25] = test system: M14 melanoma
[26] = test system: M19-MEL melanoma
[27] = test system: MALME-3M melanoma
[28] = test system: MOLT-4 leukemia
[29] = test system: NCI-H226 lung
[30] = test system: NCI-H23 lung
[31] = test system: NCI-H460 lung
[32] = test system: NCI-H522 lung
[33] = test system: OVCAR-3 ovarian
[34] = test system: OVCAR-4 ovarian
[35] = test system: OVCAR-5 ovarian
[36] = test system: OVCAR-8 ovarian
[37] = test system: RPMI-8226 leukemia
[38] = test system: RXF 393 renal
[39] = test system: SF-268 CNS
[40] = test system: SF-295 CNS
[41] = test system: SF-539 CNS
[42] = test system: SK-MEL-2 melanoma
[43] = test system: SK-MEL-28 melanoma
[44] = test system: SK-MEL-5 melanoma
[45] = test system: SK-OV-3 ovarian
[46] = test system: SN12C renal
[47] = test system: SNB-19 CNS
[48] = test system: SNB-75 CNS
[49] = test system: SNB-78 CNS
[50] = test system: SR leukemia
[51] = test system: SW-620 colon
[52] = test system: TK-10 renal
[53] = test system: U251 CNS
[54] = test system: UACC-257 melanoma
[55] = test system: UACC-62 melanoma
[56] = test system: UO-31 renal
[57] = test system: XF 498 CNS
[58] = test system: KM20L2 colon

Molecule `NC(=O)C(=O)N/N=C(\CC1(O)C(=O)Nc2ccccc21)c1ccc2ccccc2c1` (stereo not drawn) has a TGI [1] of over 100 µM, a TGI [2] of 82.1 µM and a TGI [3] of 43.9 µM. For the same molecule, the TGI [4] was over 100 µM, the TGI [5] was over 100 µM and the TGI [6] was 48.5 µM. For the same molecule, the TGI [7] was 41.1 µM, the TGI [8] was over 100 µM and the TGI [9] was 55.4 µM. The TGI [10] was 80.5 µM, the TGI [11] was over 100 µM and the TGI [12] was 87.9 µM. It also gave a TGI [13] of 21.2 µM, a TGI [14] of over 100 µM and a TGI [15] of 36.5 µM. It also gave a TGI [16] of over 100 µM, a TGI [17] of over 100 µM and a TGI [18] of 87.8 µM. It also gave a TGI [19] of over 100 µM, a TGI [20] of over 100 µM and a TGI [21] of 61.7 µM. For the same molecule, the TGI [22] was 58.7 µM, the TGI [23] was 85.5 µM and the TGI [24] was over 100 µM. For the same molecule, the TGI [25] was over 100 µM, the TGI [26] was 65.6 µM and the TGI [27] was over 100 µM. The TGI [28] was 53.5 µM, the TGI [29] was over 100 µM and the TGI [30] was 76.7 µM. It also gave a TGI [31] of over 100 µM, a TGI [32] of 41.6 µM and a TGI [33] of 67.3 µM. It also gave a TGI [34] of over 100 µM, a TGI [35] of over 100 µM and a TGI [36] of over 100 µM. For the same molecule, the TGI [37] was 86.3 µM, the TGI [38] was 41.2 µM and the TGI [39] was over 100 µM. It also gave a TGI [40] of over 100 µM, a TGI [41] of over 100 µM and a TGI [42] of 48.5 µM. It also gave a TGI [43] of over 100 µM, a TGI [44] of over 100 µM and a TGI [45] of over 100 µM. The TGI [46] was 60.5 µM, the TGI [47] was over 100 µM and the TGI [48] was over 100 µM. It also gave a TGI [49] of over 100 µM, a TGI [50] of 44.5 µM and a TGI [51] of over 100 µM. The TGI [52] was over 100 µM, the TGI [53] was 76.4 µM and the TGI [54] was over 100 µM. For the same molecule, the TGI [55] was 77.9 µM, the TGI [56] was over 100 µM and the TGI [57] was 51.3 µM.
For `O=C1C(Cl)N(c2ccccc2[N+](=O)[O-])C1c1c[nH]c2ccccc12` (stereo not drawn), the TGI [3] was over 100 µM, the TGI [6] was over 100 µM and the TGI [7] was over 100 µM. For the same molecule, the TGI [9] was over 100 µM, the TGI [11] was over 100 µM and the TGI [13] was over 100 µM. The TGI [15] was over 100 µM, the TGI [17] was over 100 µM and the TGI [18] was over 100 µM. For the same molecule, the TGI [19] was over 100 µM, the TGI [20] was over 100 µM and the TGI [21] was over 100 µM. For the same molecule, the TGI [22] was over 100 µM, the TGI [58] was over 100 µM and the TGI [24] was over 100 µM. The TGI [25] was over 100 µM, the TGI [26] was over 100 µM and the TGI [27] was over 100 µM. It also gave a TGI [28] of over 100 µM, a TGI [30] of over 100 µM and a TGI [31] of over 100 µM. The TGI [32] was over 100 µM, the TGI [33] was over 100 µM and the TGI [34] was over 100 µM. The TGI [35] was 54.8 µM, the TGI [36] was over 100 µM and the TGI [37] was over 100 µM. For the same molecule, the TGI [38] was over 100 µM, the TGI [39] was over 100 µM and the TGI [40] was over 100 µM. For the same molecule, the TGI [41] was over 100 µM, the TGI [42] was over 100 µM and the TGI [43] was over 100 µM. It also gave a TGI [44] of over 100 µM, a TGI [45] of over 100 µM and a TGI [46] of over 100 µM. It also gave a TGI [47] of over 100 µM, a TGI [48] of over 100 µM and a TGI [50] of over 100 µM. For the same molecule, the TGI [51] was over 100 µM, the TGI [52] was over 100 µM and the TGI [53] was over 100 µM. The TGI [54] was over 100 µM, the TGI [55] was over 100 µM and the TGI [56] was over 100 µM. For the same molecule, the TGI [57] was over 100 µM.
